The results in this text go back to patent US8148392B2, “2-indolyl imidazo [4,5-d] phenanthroline derivatives and their use in the treatment of cancer” (Lorus Therapeutics Inc., priority 2005, dated 2012).

Series [1] has as its system normal cell lines PrEC, HMEC, WI38 and cancer cell lines DU145, MDA-MB-435, HT-29. In words: Cancer cell selectivity, IC90 in normal versus cancer cell lines (XTT). It is filed as cell-based, human. Particulars: average IC90 of all normal / average IC90 of all cancer cell lines, 6 to 7 days. The text has this:
An exemplary method of assessing the differential sensitivity between normal and cancer cells for a compound has been described by Vassilev et al. (Anti-Cancer Drug Design (2001) 16:7). This method involves the comparison of IC90 values, i.e. the molar concentration of a test compound required to cause 90% growth inhibition of exponentially growing cells. Thus, the IC90 values for candidate compounds can be evaluated in various cancer cell lines (such as those outlined above) and normal cells (such as HUVEC and/or WI38 cells) and compared. IC90 values can be measured using a variety of standard techniques as known in the art. Cancer cell selectivity is calculated as a ratio between the average IC90 for all normal cell lines and the average IC90 for all cancer cell lines. Compounds with an IC90 ratio (normal/cancer) of >4 are considered to be selective for cancer cells (L. T. Vassilev et al., Anti-cancer Drug Design, 2001, 16: 7-17).
The normal cells lines used were PrEC (prostate), HMEC (breast), and WI38 (lung fibroblast) cell lines and the cancer cells lines were DU145 (prostate), MDA-MB-435 (breast), HT-29 (colon). IC90 values were also determined for the controls doxorubicin and etoposide. The cells were cultured as generally described in Example 13. Various concentrations of the compounds were incubated with the cells for 6 to 7 days, and the number of proliferating cells was measured using the XTT assay. Cancer cell selectivity was calculated as a ratio between the average IC90 for all normal and the average IC90 for all cancer cell lines.

Series [2] relates to human colon carcinoma HT-29 cells. Description: XTT cell proliferation assay, HT-29. The class given is cell-based. Particulars: Homo sapiens, HT-29, XTT, read-out: IC50. The procedure:
The ability of compounds of Formula I to inhibit the proliferation of human colon carcinoma HT-29 cells was tested as follows. HT-29 colon carcinoma cells used in this example and subsequent examples were maintained as a monolayer in a growth medium; McCoy's 5A modified medium (Sigma, St. Louis, Mo.), supplemented with 2 mM L-glutamine (Gibco, Grand Island, N.Y.), 10% fetal bovine serum (FBS) (Multicell, WISENT Inc. St-Bruno, QC), antibiotic-antimycotic (Multicell), at 37° C. in a 5% CO2-humidified incubator. Cells were transferred onto 150 mm tissue culture plates and grown until sub-confluency (70-80%) prior to their use. The in vitro antiproliferative activity of compounds was evaluated by incubating the cells with varying concentrations of the compounds as shown in Table 1 for 6-7 days. The efficacy of these compounds in this cell proliferation assay was measured based in the ability of live cells to reduce the tetrazolium salt XTT to orange colored compounds of formazan (XTT cell proliferation kit II, Roche Applied Science, Montreal, QC).
The ability of compounds of Formula I to inhibit the proliferation of human colon carcinoma HT-29 cells was tested as described above in Example 13.
Cell growth inhibition IC50 (μM) by compounds of Formula I was tested on various cancer cell types by XTT cell proliferation assay. The growth inhibitory effects of the compounds of Formula I as shown below for the melanoma cell line SK-MEL-2 were reproducible by Lorus Therapeutics Inc.
A general note: Tetrazolium assays rely on reduction of a dye to a coloured formazan, in cell work by metabolically active cells.

The subject of another series is supercoiled plasmid DNA. In words: In vitro DNA cleavage assay. The class given is biochemical. The note with it: 25 μM compound, 10 μM CuSO4, 100 μM ascorbic acid, 37° C., 30 minutes. As for the experimental part:
Compound 3 was tested for its ability to cleave plasmid DNA in vitro in the presence of copper and the reducing agent ascorbic acid. Experiments were performed in a total of 20 μl, containing 10 mM NaH2PO4/Na2HPO4 buffer (pH 6.7), 1 μg of supercoiled plasmid DNA, 100 μM ascorbic acid, 25 μM drug compound (or vehicle), and 10 μM of CuSO4.5H20. The reaction mixture was incubated at 37° C. for 30 minutes, and 1 μl of 0.1 M EDTA was added to terminate the reaction. DNA loading buffer was added, and reactions were run at 80V for 80 minutes on a 1% agarose gel containing ethidium bromide.
To determine whether ions other than copper could suffice, DNA cleavage reactions were also carried out in the presence of zinc or iron. Reactions were performed as above, in the presence of 25 μM of CuSO4.5H20, ZnCl2, or FeCl2.4H20. […] Note that copper alone in the presence of ascorbic acid can shift the ratio of supercoiled DNA to open circular DNA.
To determine the ratios of compound to copper at which compound 3 was effective, reactions were performed as in FIG. 22A. The ratios of compound 3 to copper of 3:1, 2.5:1, 2:1, 1.5:1, and 1:1, as shown in FIG. 23 were achieved by maintaining the concentration of Cu constant at 10 μM, and varying the concentration of compound 3. The ratios of compound 3 to Cu of 1:1.5, 1:2, 1:2.5, and 1:3, were achieved by maintaining the concentration of compound 3 constant at 10 μM, and varying the concentration of copper.
Other compounds of Formula I, compounds 5, 7, 9 and 13 were also tested for their ability to cleave DNA at a ratio of 2.5:1 to copper (FIG. 23). Ratios of compound 3:copper as indicated, plus concentrations of copper in the absence of compound 3 were used in the DNA cleavage assay as described above.

Series [3] is classed as in vivo. Particulars: i.p. twice per day for 1 week. The procedure:
To test the sub-acute toxicity of the compounds of Formula I, female mice were injected with the compounds and toxicity was evaluated based on mortality, changes in behaviour, appearance and weight. Briefly, ICR normal female mice (5-6 weeks old; n=33) weighing about 0.020 kg in body weight, were injected with various compounds at 100 mg/kg and 50 mg/kg or with the vehicle alone (Lutrol (M68, micronized)). Groups of 3 ICR female mice were injected with one intra-peritoneal (i.p.) injection of 250 μl of each compound at 4.0 mg/ml twice per day (100 mg/kg) for 1 week (Group I); or with one intra-peritoneal (i.p.) injection of 250 μl of each compound at 2.0 mg/ml twice per day (50 mg/kg) for 1 week (Group II), or with one intra-peritoneal (i.p.) injection of 250 μl of lutrol vehicle control twice per day for 1 week (Control Group).
The compounds to be tested were prepared to provide enough for one week at concentrations of 4.0 mg/ml and 2.0 mg/ml. Briefly, 50 mg of each compound was dissolved in 1.25 ml of 100% DMSO and diluted with 6.25 ml of Lutrol (30% in water) and 5 ml water, to prepare a solution of 4 mg/ml compound in 15% Lutrol in water. Next, 4 ml of each prepared solution was further diluted with 4 ml of 15% Lutrol in water to provide the 2.0 mg/ml solution of each compound. For the vehicle control solution, 8 ml of 15% Lutrol in water was prepared. Compounds at concentrations of 4.0 mg/ml and 2.0 mg/ml and the vehicle control were administered as described above.

Read-outs that look alike come from different tables or passages of the source.

With `COc1cccc2c1C(=O)c1c(O)c3c(c(O)c1C2=O)C[C@@](O)(C(=O)CO)C[C@@H]3O[C@H]1C[C@H](N)[C@H](O)[C@H](C)O1` [Doxorubicin, doxorubicin, reference compound], the “Normal/cancer IC90 ratio” value in series [1] is reported as 5.6.
For `COc1cc([C@@H]2c3cc4c(cc3[C@@H](O[C@@H]3O[C@@H]5CO[C@@H](C)O[C@H]5[C@H](O)[C@H]3O)[C@H]3COC(=O)[C@H]23)OCO4)cc(OC)c1O` [Etoposide, etoposide, reference compound], the “Normal/cancer IC90 ratio” value in series [1] is given as more than 5.0.
By IC50 is commonly meant the midpoint of a concentration-inhibition curve. Turning to `c1ccc(-c2[nH]c3ccccc3c2-c2nc3c4cccnc4c4ncccc4c3[nH]2)cc1` [Compound 9], the IC50 in series [2] (6-7 days, Table 3) came out at 300 nM; in series [2] (as Example 13, Table 7), 0.3 µg/mL. Further, the “cleavage of plasmid DNA” value in the series with supercoiled plasmid DNA is on record as “capable of cleaving DNA”. Besides, the Sub-acute toxicity entry in series [3] (50 mg/Kg) is reported as “−”; in series [3] (100 mg/Kg) it was “+”. The “Normal/cancer IC90 ratio” value in series [1] was more than 5.6.
